Laboratory results from patent US4650791A, “Certain 3-alkoxy-2-cyclic-imido-propyl-phosphate-ethyl-cyclic ammonium hydroxide inner salts which inhibit activities of platelet activating factor” (Takedo Chemical Industries, Ltd., priority 1984, dated 1987).

Experiments:
[1] = system: PAF-induced platelet aggregation (washed PRP); test: Activity to inhibit PAF in platelet aggregation (washed PRP); format: cell-based; conditions: Oryctolagus cuniculus, male rabbit, compound 3×10^-5 M, PAF 3×10^-5 M, 37° C., read-out: inhibition rate relative to the maximum transmission (maximum aggregation) of control PRP by PAF
Experimental: Activity to inhibit PAF in platelet aggregation
Using an injection syringe containing a 3.15% solution of citric acid (in a ratio of 1 part per 9 parts of blood) as an anticoagulant, the blood was directly collected from a male rabbit. Then, at room temperature, the blood was centrifuged at 1,000 r.p.m. for 10 minutes to harvest a platelet rich plasm (PRP). This PRP was further centrifuged at 1,400 r.p.m. for 15 minutes to give platelet pellets. The pellets were suspended in Ca^++ -free Tyrode solution (containing 0.25% of gelatin) to give a washed PRP. This washed PRP (250 μl) was stirred at 37° C. for 2 minutes, then 25 μl of a 0.2 to 0.5 mM Ca^++ solution was added, and the mixture was further stirred for 30 seconds. Then, the compound obtained in Example 5 was added to a concentration of 3×10^-5 M. After stirring the mixture for 2 minutes, 3×10^-5 M of PAF was added. The degree of platelet aggregation was determined with a platelet aggregometer (Rika Denki). The activity of the test drug was estimated from the inhibition rate relative to the maximum transmission (maximum aggregation) of control PRP by PAF. The inhibition rate thus found was 70%.

[2] = system: PAF-induced platelet aggregation (PRP); test: Activity on inhibiting platelet aggregation (PRP, PAF-induced); format: cell-based; conditions: male rabbit, PAF 1×10^-8 M, 37° C.
Experimental: Activity on inhibiting platelet aggregation
Using an injection syringe containing 3.15% citric acid (in a ratio of 1 part per 9 parts of blood) as an anticoagulant, the blood was directly collected from a male rabbit. Then, at room temperature, the blood was centrifuged at 800 r.p.m. for 10 minutes to harvest a platelet rich plasma (PRP). The remaining blood was further centrifuged at 3,000 r.p.m. for 10 minutes to separate a platelet poor plasma (PPP) as a supernatant. The PRP was diluted with the PPP to adjust the number of platelets to about 0.5 million (5×10^5) per μl. This PRP (250 μl) was stirred at 37° C. for 2 minutes, and the test compound was added to the PRP. After stirring the mixture for 2 minutes, 1×10^-8 M of PAF was added to the mixture. The degree of platelet aggregation was determined with a platelet aggregometer (Rika Denki). The aggregation inhibitory activity of the test compound was estimated from the inhibition rate relative to the maximum transmission (maximum aggregation) of control PRP by PAF.

| Structure (SMILES) | inhibition at 30 µM [1] | Inhibition rate (%) ([2]; test compound 3 × 10^-5 (M)) | Inhibition rate (%) ([2]; test compound 3 × 10^-6 (M)) |
| --- | --- | --- | --- |
| CCCCCCCCCCCCCCCCCCOCC(COP(=O)([O-])OCC[n+]1ccccc1)N1C(=O)c2ccccc2C1=O (centres unmarked) [Example 5, 3-Octadecyloxy-2-phthalimidopropyl 2-pyridinioethyl phosphate] | 70% | – | – |
| CCCCCCCCCCCCCCCCCCOCC(COP(=O)([O-])OCC[n+]1ccsc1)N1C(=O)c2ccccc2C1=O (centres unmarked) [Example 6, 3-Octadecyloxy-2-phthalimidopropyl 2-thiazolioethyl phosphate] | – | 100% | 96% |
| CCCCCCCCCCCCCCCCCCOCC(COP(=O)([O-])OCC[n+]1ccsc1)N1C(=O)CCC1=O (centres unmarked) [Example 12, 3-Octadecyloxy-2-succinimidopropyl 2-thiazolioethyl phosphate] | – | 100% | 32% |
